Source: patent US10961200B2, “Small molecule inhibitors of lactate dehydrogenase and methods of use thereof” (THE UNITED STATES OF AMERICA, AS REPRESENTED BY THE …, priority 2014, dated 2021)

These molecules were tested against Human LDHA (Homo sapiens (Human), UniProt P00338) (assay: human LDHA primary biochemical assay (resazurin/diaphorase coupled, fluorescence)). Conditions: LDHA inhibitory activity, assay of Example 1; activity level classes.
From the text: Test compounds were placed in a Greiner Bio-One (Monroe, N.C.) 1536-well black solid bottom assay plate. 200 millimolar (mM) Tris HCl, pH 7.4, 100 micromolar […] EDTA and 0.01% TWEEN-20™, final concentration, was used as the assay buffer. The LDHA reagent was 2 nanomolar (nM) Human LDHA (Meridian Life Science, Inc., Memphis, Tenn.), final concentration, in assay buffer.

Row | Structure (SMILES) | IC50 [nM]
1 | COC(=O)c1cnc(-n2nc(-c3ccccc3)c(Cc3ccc(S(N)(=O)=O)cc3)c2N)nc1C(F)(F)F [Compound 190, methyl 2-(5-amino-3-phenyl-4-(4-sulfamoylbenzyl)-1H-pyrazol-1-yl)-4-(trifluoromethyl)pyrimidine-5-carboxylate] | > 57000
2 | Nc1c(Cc2ccc(S(N)(=O)=O)cc2)c(-c2ccccc2)nn1-c1ccc(C(=O)O)nn1 [Compound 191, 6-(5-amino-3-phenyl-4-(4-sulfamoylbenzyl)-1H-pyrazol-1-yl)pyridazine-3-carboxylic acid] | > 57000
3 | NS(=O)(=O)c1ccc(Cc2cn(-c3nc(C(=O)O)cs3)c3ccc(-c4ccccc4F)cc23)cc1 [Compound 195, 2-(5-(2-fluorophenyl)-3-(4-sulfamoylbenzyl)-1H-indol-1-yl)thiazole-4-carboxylic acid] | < 100
4 | O=C(O)c1csc(-n2cc(Cc3ccc(CO)cc3)c(-c3ccccc3)n2)n1 [Compound 199, 2-(4-(4-(hydroxymethyl)benzyl)-3-phenyl-1H-pyrazol-1-yl)thiazole-4-carboxylic acid] | > 57000
5 | NS(=O)(=O)c1ccc(Cc2c(-c3cccc(-c4ccccc4)c3)nn(-c3nc(C(=O)O)cs3)c2C2CC2(F)F)cc1 (stereo not drawn) [Compound 205, 2-(3-([1,1′-biphenyl]-difluorocyclopropyl)-4-(4-sulfamoylbenzyl)-1H-pyrazol-1-yl)thiazole-4-carboxylic acid] | < 100
6 | NS(=O)(=O)c1ccc(Cc2cn(-c3csc4c(=O)[nH]cnc34)nc2-c2ccccc2)cc1 [Compound 210, 4-((1-(4-oxo-3,4-dihydrothieno[3,2-d]pyrimidin-7-yl)-3-phenyl-1H-pyrazol-4-yl)methyl)benzenesulfonamide] | > 57000
7 | NS(=O)(=O)c1ccc(Cc2cn(-c3nc(Br)cs3)nc2-c2ccccc2)cc1 [Compound 235] | 1000 to 57000
8 | COc1cccc(-c2cc(-c3c(Cc4ccc([S+](N)(=O)[O-])cc4)c(CC4CC4)nn3-c3nc(C(=O)O)cs3)ccc2F)c1 [Compound 236] | > 57000
9 | NS(=O)(=O)c1ccc(Cc2c(-c3ccc(F)c(-c4ccc(F)cc4)c3)nn(-c3nc(C(=O)O)cs3)c2C(F)(F)F)cc1 [Compound 240] | < 100
10 | NS(=O)(=O)c1ccc(Cc2c(-c3ccc(F)c(-c4cccc(F)c4)c3)nn(-c3nc(C(=O)O)cs3)c2C(F)(F)F)cc1 [Compound 241] | < 100
11 | COc1cccc(-c2cc(-c3nn(-c4nc(C(=O)O)cs4)c(C(F)(F)F)c3Cc3ccc(S(N)(=O)=O)cc3)ccc2F)c1 [Compound 242] | < 100
12 | Cc1ccc(-c2cc(-c3nn(-c4nc(C(=O)O)cs4)c(C(F)(F)F)c3Cc3ccc(S(N)(=O)=O)cc3)ccc2F)cc1 [Compound 243] | < 100
13 | CCOC(=O)c1csc(-n2nc(-c3cccc(-c4ccccc4)c3)c(Cc3ccc(S(N)(=O)=O)cc3F)c2C2CC2)n1 [Compound 244] | > 57000
14 | CCOC(=O)c1csc(-n2nc(-c3ccc(F)c(-c4ccc(C)cc4)c3)c(Cc3ccc(S(N)(=O)=O)c(F)c3)c2C2CC2)n1 [Compound 245] | 1000 to 57000

Same assay, conditions: read-out: Inhibitory activity IC50

Row | Structure (SMILES) | IC50 [nM]
15 | NS(=O)(=O)c1ccc(Oc2c(C3CC3)nn(-c3nc(C(=O)O)cs3)c2-c2cccc(-c3ccccc3)c2)cc1 [Compound 186, 2-(5-([1,1′-biphenyl]-3-yl)-3-cyclopropyl-4-(4-sulfamoylphenoxy)-1H-pyrazol-1-yl)thiazole-4-carboxylic acid] | 1000 to 57000
16 | NS(=O)(=O)c1ccc(Cc2c(CC3CC3)nn(-c3nc(C(=O)O)cs3)c2-c2ccccc2)cc1 [Compound 188, 2-(3-(cyclopropylmethyl)-5-phenyl-4-(4-sulfamoylbenzyl)-1H-pyrazol-1-yl)thiazole-4-carboxylic acid] | 100 to 1000
17 | NS(=O)(=O)c1ccc(Cc2cn(-c3nc(C(=O)O)cs3)c3cc(CN4CCOCC4)ccc23)cc1 [Compound 192, 2-(6-(morpholinomethyl)-3-(4-sulfamoylbenzyl)-1H-indol-1-yl)thiazole-4-carboxylic acid] | 100 to 1000
18 | NS(=O)(=O)c1ccc(Cc2cn(-c3nc(C(=O)O)cs3)c3cccc(CN4CCOCC4)c23)cc1 [Compound 193, 2-(4-(morpholinomethyl)-3-(4-sulfamoylbenzyl)-1H-indol-1-yl)thiazole-4-carboxylic acid] | 100 to 1000
19 | NS(=O)(=O)c1ccc(Cc2cn(-c3nc(C(=O)O)cs3)c3ccc(Cc4ccccc4F)cc23)cc1 [Compound 194, 2-(5-(2-fluorobenzyl)-3-(4-sulfamoylbenzyl)-1H-indol-1-yl)thiazole-4-carboxylic acid] | 100 to 1000
20 | NS(=O)(=O)c1ccc(Cc2cn(-c3nc(C(=O)O)cs3)c3ccccc23)cc1 [Compound 196, 2-(3-(4-sulfamoylbenzyl)-1H-indol-1-yl)thiazole-4-carboxylic acid] | 100 to 1000
21 | NS(=O)(=O)c1ccc(Cc2cn(-c3nc(C(=O)O)cs3)c3cc(C(F)(F)F)ccc23)cc1 [Compound 197, 2-(3-(4-sulfamoylbenzyl)-6-(trifluoromethyl)-1H-indol-1-yl)thiazole-4-carboxylic acid] | 100 to 1000
22 | NS(=O)(=O)c1ccc(Cc2cn(-c3nc(C(=O)O)cs3)c3cccc(Cc4ccccc4F)c23)cc1 [Compound 198, 2-(4-(2-fluorobenzyl)-3-(4-sulfamoylbenzyl)-1H-indol-1-yl)thiazole-4-carboxylic acid] | 100 to 1000
23 | O=C(O)c1csc(-n2cc(Cc3ccc(CO)cc3)c(-c3cccc(-c4ccccc4)c3)n2)n1 [Compound 200, 2-(3-([1,1′-biphenyl]-3-yl)-4-(4-(hydroxymethyl)benzyl)-1H-pyrazol-1-yl)thiazole-4-carboxylic acid] | 1000 to 57000
24 | NS(=O)(=O)c1ccc(Cc2cn(-c3nc(C(=O)O)cs3)c3cc(CO)ccc23)cc1 [Compound 201, 2-(6-(hydroxymethyl)-3-(4-sulfamoylbenzyl)-1H-indol-1-yl)thiazole-4-carboxylic acid] | 100 to 1000
25 | NS(=O)(=O)c1ccc(Cc2cn(-c3nc(C(=O)O)cs3)c3c(F)cccc23)cc1 [Compound 202, 2-(7-fluoro-3-(4-sulfamoylbenzyl)-1H-indol-1-yl)thiazole-4-carboxylic acid] | 100 to 1000
26 | NS(=O)(=O)c1ccc(Cc2c(CCC3CC3)nn(-c3nc(C(=O)O)cs3)c2-c2cccc(-c3ccccc3)c2)cc1 [Compound 204, 2-(5-([1,1′-biphenyl]-3-yl)-3-(2-cyclopropylethyl)-4-(4-sulfamoylbenzyl)-1H-pyrazol-1-yl)thiazole-4-carboxylic acid] | 1000 to 57000
27 | NS(=O)(=O)c1ccc(Cc2c(CC3CC3(F)F)nn(-c3nc(C(=O)O)cs3)c2-c2cccc(-c3ccccc3)c2)cc1 (stereo not drawn) [Compound 208, 2-(5-([1,1′-biphenyl]-3-yl)-5-((2,2-difluorocyclopropyl)methyl)-4-(4-sulfamoylbenzyl)-1H-pyrazol-1-yl)thiazole-4-carboxylic acid] | 1000 to 57000
28 | Nc1ncnc2c(-n3cc(Cc4ccc(S(N)(=O)=O)cc4)c(-c4ccccc4)n3)csc12 [Compound 211, 4-((1-(4-aminothieno[3,2-d]pyrimidin-7-yl)-3-phenyl-1H-pyrazol-4-yl)methyl)benzenesulfonamide] | 1000 to 57000
29 | Cc1noc(C)c1-c1cc(-c2c(Cc3ccc(S(N)(=O)=O)cc3F)c(CC3CC3)nn2-c2nc(C(=O)O)cs2)ccc1F [Compound 216, 2-(3-(cyclopropylmethyl)-5-(3-(3,5-dimethylisoxazol-4-yl)-4-fluorophenyl)-4-(2-fluoro-4-sulfamoylbenzyl)-1H-pyrazol-1-yl)thiazole-4-carboxylic acid] | > 57000
30 | Cn1cc(-c2cc(-c3c(Cc4ccc(S(N)(=O)=O)c(F)c4)c(CC4CC4)nn3-c3nc(C(=O)O)cs3)ccc2F)cn1 [Compound 218, 2-(3-(cyclopropylmethyl)-5-(4-fluoro-3-(1-methyl-1H-pyrazol-4-yl)phenyl)-4-(3-fluoro-4-sulfamoylbenzyl)-1H-pyrazol-1-yl)thiazole-4-carboxylic acid] | > 57000
31 | Cc1noc(C)c1-c1cc(-c2c(Cc3ccc(S(N)(=O)=O)c(F)c3)c(CC3CC3)nn2-c2nc(C(=O)O)cs2)ccc1F [Compound 220, 2-(3-(cyclopropylmethyl)-5-(3-(3,5-dimethylisoxazol-4-yl)-4-fluorophenyl)-4-(3-fluoro-4-sulfamoylbenzyl)-1H-pyrazol-1-yl)thiazole-4-carboxylic acid] | > 57000
32 | Cc1csc(-c2cc(-c3c(Cc4ccc(S(N)(=O)=O)cc4F)c(CC4CC4)nn3-c3nc(C(=O)O)cs3)ccc2F)c1 [Compound 222, 2-(3-(cyclopropylmethyl)-5-(4-fluoro-3-(4-methylthiophen-2-yl)phenyl)-4-(2-fluoro-4-sulfamoylbenzyl)-1H-pyrazol-1-yl)thiazole-4-carboxylic acid] | > 57000
33 | Cc1csc(-c2cc(-c3c(Cc4ccc(S(N)(=O)=O)c(F)c4)c(CC4CC4)nn3-c3nc(C(=O)O)cs3)ccc2F)c1 [Compound 224, 2-(3-(cyclopropylmethyl)-5-(4-fluoro-3-(4-methylthiophen-2-yl)phenyl)-4-(3-fluoro-4-sulfamoylbenzyl)-1H-pyrazol-1-yl)thiazole-4-carboxylic acid] | > 57000
34 | Cc1ccc(-c2cc(-c3c(Cc4ccc(S(N)(=O)=O)cc4F)c(CC4CC4)nn3-c3nc(C(=O)O)cs3)ccc2F)s1 [Compound 226, 2-(3-(cyclopropylmethyl)-5-(4-fluoro-3-(5-methylthiophen-2-yl)phenyl)-4-(2-fluoro-4-sulfamoylbenzyl)-1H-pyrazol-1-yl)thiazole-4-carboxylic acid] | > 57000
35 | Cc1ccc(-c2cc(-c3c(Cc4ccc(S(N)(=O)=O)c(F)c4)c(CC4CC4)nn3-c3nc(C(=O)O)cs3)ccc2F)s1 [Compound 228, 2-(3-(cyclopropylmethyl)-5-(4-fluoro-3-(5-methylthiophen-2-yl)phenyl)-4-(3-fluoro-4-sulfamoylbenzyl)-1H-pyrazol-1-yl)thiazole-4-carboxylic acid] | > 57000
36 | N[S+](=O)([O-])c1ccc(Cc2c(CC3CC3)nn(-c3nc(C(=O)O)cs3)c2-c2ccc(F)c(-c3cccc(F)c3)c2)cc1 [Compound 238] | 1000 to 57000
